Tests used:
Assay in all cases: relative viability (nuclei count vs DMSO), 5 days (fraction); higher = more cells survive
[1] = system: COR-L23
In short: (§1)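 After 5 days of treatment, lung cancer cells in 1536-well plates were fixed and stained in a single step (final 0.05% Triton X-100, 1% formaldehyde, 1 ug/ml Hoechst) and their nuclei counted on 4× images. Treatment had been applied by pin tool the day after seeding as one drug alone or as a fixed anchor-drug dose with five library-drug doses (not always all listed) in √10 steps. Relative viability is the nuclei count of treated wells divided by that of vehicle wells, and values are medians of duplicate plates.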

[2] = system: ChaGo-K-1
In short: as §1

[3] = system: EMC-BAC-2
In short: as §1

[4] = system: EPLC-272H
In short: as §1

[5] = system: H3255
In short: as §1

[6] = system: HCC-44
In short: as §1

[7] = system: HCC-827
In short: as §1

[8] = system: LCLC-103H
In short: as §1

[9] = system: LU99A
In short: as §1

[10] = system: NCI-H1395
In short: as §1

[11] = system: NCI-H1563
In short: as §1

COc1cc2nccc(Oc3ccc(NC(=O)Nc4cc(C)on4)c(Cl)c3)c2cc1OC [Tivozanib] + CS(=O)(=O)N1CCN(Cc2cc3nc(-c4cccc5[nH]ncc45)nc(N4CCOCC4)c3s2)CC1 [Pictilisib] (partner 1 µM) showed a relative viability ([1]; first compound 0.005 µM) of 0.733, a relative viability ([1]; first compound 0.01581 µM) of 0.74 and a relative viability ([1]; first compound 0.05 µM) of 0.917. It also gave a relative viability ([1]; first compound 0.1581 µM) of 0.575, a relative viability ([1]; first compound 0.5 µM) of 0.565 and a relative viability ([2]; first compound 0.005 µM) of 0.591. It also gave a relative viability ([2]; first compound 0.01581 µM) of 0.779, a relative viability ([2]; first compound 0.05 µM) of 0.559 and a relative viability ([2]; first compound 0.1581 µM) of 0.388. For the same molecule, the relative viability ([2]; first compound 0.5 µM) was 0.504, the relative viability ([3]; first compound 0.005 µM) was 0.561 and the relative viability ([3]; first compound 0.01581 µM) was 0.529. It also gave a relative viability ([3]; first compound 0.05 µM) of 0.554, a relative viability ([3]; first compound 0.1581 µM) of 0.389 and a relative viability ([3]; first compound 0.5 µM) of 0.578. The relative viability ([4]; first compound 0.005 µM) was 0.311, the relative viability ([4]; first compound 0.01581 µM) was 0.31 and the relative viability ([4]; first compound 0.05 µM) was 0.326. The relative viability ([4]; first compound 0.1581 µM) was 0.285, the relative viability ([4]; first compound 0.5 µM) was 0.162 and the relative viability ([5]; first compound 0.005 µM) was 0.451. For the same molecule, the relative viability ([5]; first compound 0.01581 µM) was 0.435, the relative viability ([5]; first compound 0.05 µM) was 0.538 and the relative viability ([5]; first compound 0.1581 µM) was 0.449. For the same molecule, the relative viability ([5]; first compound 0.5 µM) was 0.421, the relative viability ([6]; first compound 0.005 µM) was 0.617 and the relative viability ([6]; first compound 0.01581 µM) was 0.471. It also gave a relative viability ([6]; first compound 0.05 µM) of 0.718, a relative viability ([6]; first compound 0.1581 µM) of 0.488 and a relative viability ([6]; first compound 0.5 µM) of 0.654. It also gave a relative viability ([7]; first compound 0.005 µM) of 0.864, a relative viability ([7]; first compound 0.01581 µM) of 0.924 and a relative viability ([7]; first compound 0.05 µM) of 1.01. The relative viability ([7]; first compound 0.1581 µM) was 1.24, the relative viability ([7]; first compound 0.5 µM) was 0.982 and the relative viability ([8]; first compound 0.005 µM) was 0.58. The relative viability ([8]; first compound 0.01581 µM) was 0.735, the relative viability ([8]; first compound 0.05 µM) was 0.604 and the relative viability ([8]; first compound 0.1581 µM) was 0.602. The relative viability ([8]; first compound 0.5 µM) was 0.591, the relative viability ([9]; first compound 0.005 µM) was 0.315 and the relative viability ([9]; first compound 0.01581 µM) was 0.339. For the same molecule, the relative viability ([9]; first compound 0.05 µM) was 0.348, the relative viability ([9]; first compound 0.5 µM) was 0.317 and the relative viability ([10]; first compound 0.005 µM) was 0.671. The relative viability ([10]; first compound 0.01581 µM) was 0.746, the relative viability ([10]; first compound 0.05 µM) was 0.769 and the relative viability ([10]; first compound 0.1581 µM) was 0.627. The relative viability ([10]; first compound 0.5 µM) was 0.678, the relative viability ([11]; first compound 0.005 µM) was 0.668 and the relative viability ([11]; first compound 0.01581 µM) was 0.729. The relative viability ([11]; first compound 0.05 µM) was 0.622 and the relative viability ([11]; first compound 0.1581 µM) was 0.699.

— the supplement of paper PMC10307832
